Reference: patent publication US20230135894A1, “MK2 DEGRADERS AND USES THEREOF” (Kymera Therapeutics, Inc., priority 2021, published 2023)

Experiments:
MK2 [1] = molecular target: T1, MK2 (Homo sapiens, UniProt P49137); test: MK2 degradation in human SW1353 cells (MSD, 24 h); format: cell-based; parameters: endogenous in cells; host or cells: SW-1353 (ATCC HTB-94); settings: for Dmax: read-out: MK2 MSD SW 1353 24 h Dmax %; for DC50: read-out: MK2 MSD SW1353 degradation 24 h GMean External Abs DC50
In short: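 DC50 derived by 4-parameter logistic fit, with DMSO-treated signal as top and lysis-buffer signal as bottom. Remaining MK2 was measured by MSD electrochemiluminescent sandwich assay in RIPA lysates of human SW1353 cells exposed for 24 h at 37 °C to serially diluted compound in 0.1% DMSO.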

MK2 [2] = molecular target: T1, MK2; test: MK2 degradation in human THP-1 monocytic cells (MSD, 24 h); format: cell-based; parameters: endogenous in cells; key to MK2 MSD THP-1 degradation 24 h GMean External Abs DC50: A (<0.001 μM); B (0.001-0.01 μM); C (0.01-0.1 μM); D (>0.1 μM); —: “-”=not tested or inactive; settings: for Dmax: THP-1, THP-1 cells; for DC50 / MK2 MSD THP-1 degradation 24 h GMean External Abs DC50: THP-1 cells; for DC50: read-out: MK2 MSD THP-1 degradation 24 h GMean External Abs DC50
In short: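 Readout: residual MK2 protein in THP-1 lysates, measured by MSD electrochemiluminescence sandwich assay after 24 h compound exposure (≤10-point serial dilutions, 0.1% DMSO, 37 °C). Curves normalised between lysis-buffer and DMSO-cell signals; DC50 by 4-parameter logistic fit.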

T1 sequence (P49137 whole entry): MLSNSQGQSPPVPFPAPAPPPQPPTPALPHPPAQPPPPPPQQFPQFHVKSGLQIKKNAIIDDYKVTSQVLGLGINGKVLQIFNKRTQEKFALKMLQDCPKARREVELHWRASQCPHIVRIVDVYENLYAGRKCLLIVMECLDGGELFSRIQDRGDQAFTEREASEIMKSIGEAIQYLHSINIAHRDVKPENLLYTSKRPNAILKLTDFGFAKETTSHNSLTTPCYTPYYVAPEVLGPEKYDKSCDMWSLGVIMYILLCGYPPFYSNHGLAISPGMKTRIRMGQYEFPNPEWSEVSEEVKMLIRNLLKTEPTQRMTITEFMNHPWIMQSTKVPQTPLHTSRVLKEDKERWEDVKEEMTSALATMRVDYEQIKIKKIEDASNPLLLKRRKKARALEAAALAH

Compound	Dmax (MK2 [1]) [%]	DC50 (MK2 [1]) [nM]	Dmax (MK2 [2]) [%]	DC50 (MK2 [2]) [nM]	MK2 MSD THP-1 degradation 24 h GMean External Abs DC50 (MK2 [2])
Cn1c(=O)n(C2CCC(=O)NC2=O)c2ccc(CCCN3CCN(c4ccc(-c5cc(-c6cc7c([nH]6)C6(CC6)CNC7=O)ccn5)cc4)CC3)cc21 (stereo not shown) [Compound I-242]	> 75	1 to 10	50 to 75	10 to 100	
Cn1c(=O)n(C2CCC(=O)NC2=O)c2ccc(N3CCC(CN4CCN(c5ccc(-c6cc(-c7cc8c([nH]7)C7(CC7)CNC8=O)ccn6)cn5)CC4)CC3)cc21 (stereo not shown) [Compound I-243]	> 75	< 1	50 to 75	< 1	
Cn1c(=O)n(C2CCC(=O)NC2=O)c2ccc(N3CCC(CN4CCN(c5ccc(-c6cc(-c7cc8c([nH]7)C7(CC7)CNC8=O)ccn6)cc5)CC4)CC3)cc21 (stereo not shown) [Compound I-244]	> 75	< 1	> 75	< 1	
C[C@@H]1CNc2c(sc3ccc4nc(-c5ccc(N6CCN(CC7CN(c8cccc9c8n(C)c(=O)n9C8CCC(=O)NC8=O)C7)CC6)nc5)ccc4c23)C(=O)N1 (stereo partly shown) [Compound I-245]	> 75	< 1	> 75	< 1	
C[C@@H]1CNc2c(sc3ccc4nc(-c5ccc(N6CCN(C7CC(c8cccc9c8n(C)c(=O)n9C8CCC(=O)NC8=O)C7)CC6)cc5)ccc4c23)C(=O)N1 (stereo partly shown) [Compound I-246]	> 75	< 1	> 75	< 1	
C[C@@H]1Cc2[nH]c(-c3ccnc(-c4ccc(N5CCC(CN6CCC(c7cccc8c7n(C)c(=O)n8C7CCC(=O)NC7=O)CC6)CC5)cc4)c3)cc2C(=O)N1 (stereo partly shown) [Compound I-248]	> 75	1 to 10	> 75	1 to 10	
Cc1cc(N2CCN(CCCc3ccc4c(c3)n(C)c(=O)n4C3CCC(=O)NC3=O)CC2)ncc1-c1ccc2c(ccc3sc4c(c32)NC[C@@H](C)NC4=O)n1 (stereo partly shown) [Compound I-249]	50 to 75	< 1	50 to 75	1 to 10	
Cc1cc(N2CCN(CC3CN(c4ccc5c(c4)n(C)c(=O)n5C4CCC(=O)NC4=O)C3)CC2)ncc1-c1ccc2c(ccc3sc4c(c32)NC[C@@H](C)NC4=O)n1 (stereo partly shown) [Compound I-250]	> 75	< 1	50 to 75	< 1	
C[C@@H]1CNc2c(sc3ccc4nc(-c5ccc(N6CCN(CCCc7ccc8c(c7)n(C)c(=O)n8C7CCC(=O)NC7=O)CC6)cc5Cl)ccc4c23)C(=O)N1 (stereo partly shown) [Compound I-251]	50 to 75	< 1	< 50		—
C[C@@H]1CNc2c(sc3ccc4nc(-c5ccc(N6CCN(CCCc7ccc8c(c7)n(C)c(=O)n8C7CCC(=O)NC7=O)CC6)cc5F)ccc4c23)C(=O)N1 (stereo partly shown) [Compound I-252]	> 75	< 1	> 75	< 1	
C[C@@H]1CN(C)c2c(sc3ccc4nc(-c5ccc(N6CCC(CN7CCN(c8ccc9c(c8)n(C)c(=O)n9C8CCC(=O)NC8=O)CC7)CC6)cc5)ccc4c23)C(=O)N1 (stereo partly shown) [Compound I-253]	> 75	1 to 10	> 75	1 to 10	
C[C@@H]1CNc2c(sc3ccc4nc(-c5ccc(N6CCN(CC7CN(c8ccc9c(c8)n(C)c(=O)n9C8CCC(=O)NC8=O)C7)CC6)nc5)ccc4c23)C(=O)N1 (stereo partly shown) [Compound I-254]	> 75	< 1	> 75	< 1	
COc1ccc2c(c1N1CCC(CN3CCN(c4ccc(-c5ccc6c(ccc7sc8c(c76)NC[C@@H](C)NC8=O)n5)cn4)CC3)CC1)n(C)c(=O)n2C1CCC(=O)NC1=O (stereo partly shown) [Compound I-255]	> 75	1 to 10	> 75	1 to 10	
COc1ccc2c(c1N1CCN(CC3CCN(c4ccc(-c5ccc6c(ccc7sc8c(c76)NC[C@@H](C)NC8=O)n5)cn4)CC3)CC1)n(C)c(=O)n2C1CCC(=O)NC1=O (stereo partly shown) [Compound I-256]	> 75	< 1	> 75	< 1	
Cn1c(=O)n(C2CCC(=O)NC2=O)c2cccc(CCCCCCN3CC4(CCN(c5ccc6c(c5)Cn5cc(-c7ccc(F)cc7)cc5-c5nccn5-6)C4)C3)c21 (stereo not shown) [Compound I-257]	< 50	> 100	< 50	> 100	
Cc1cc(-c2ccc3c(ccc4sc5c(c43)NC[C@@H](C)NC5=O)n2)cnc1N1CCN(CCCc2ccc3c(c2)n(C)c(=O)n3C2CCC(=O)NC2=O)CC1 (stereo partly shown) [Compound I-258]	50 to 75	1 to 10	< 50	1 to 10	

Compound	Dmax (MK2 [1]) [%]	DC50 (MK2 [1]) [nM]	Dmax (MK2 [2]) [%]	DC50 (MK2 [2]) [nM]	MK2 MSD THP-1 degradation 24 h GMean External Abs DC50 (MK2 [2])
Cc1nc(N2CCN(CCCc3ccc4c(c3)n(C)c(=O)n4C3CCC(=O)NC3=O)CC2)ccc1-c1ccc2c(ccc3sc4c(c32)NC[C@@H](C)NC4=O)n1 (stereo partly shown) [Compound I-259]	> 75	1 to 10	< 50		—
Cc1cc(N2CCN(CCCc3ccc4c(c3)n(C)c(=O)n4C3CCC(=O)NC3=O)CC2)ccc1-c1ccc2c(ccc3sc4c(c32)NC[C@@H](C)NC4=O)n1 (stereo partly shown) [Compound I-260]	> 75	< 1	50 to 75		—
C[C@@H]1CN(C)c2c(sc3ccc4nc(-c5ccc(N6CCC(CN7CCN(c8cccc9c(N%10CCC(=O)NC%10=O)cncc89)CC7)CC6)cc5)ccc4c23)C(=O)N1 [Compound I-261]	> 75	10 to 100	< 50	> 100	
C[C@@H]1CNc2c(sc3ccc4nc(-c5ccc(N6CCN(C7CN(c8cccc9c8n(C)c(=O)n9C8CCC(=O)NC8=O)C7)CC6)cc5)ccc4c23)C(=O)N1 (stereo partly shown) [Compound I-262]	> 75	< 1	> 75	< 1	
C[C@@H]1Cc2[nH]c(-c3ccnc(-c4ccc(N5CCC(CN6CCC(c7ccc8c(c7)n(C)c(=O)n8C7CCC(=O)NC7=O)CC6)CC5)cc4)c3)cc2C(=O)N1 (stereo partly shown) [Compound I-263]	> 75	< 1	> 75	< 1	
C[C@@H]1CNc2c(sc3ccc4nc(N5CCC(CN6CCN(c7ccc8c(c7)n(C)c(=O)n8C7CCC(=O)NC7=O)CC6)CC5)ccc4c23)C(=O)N1 (stereo partly shown) [Compound I-264]	> 75	1 to 10	> 75	1 to 10	
C[C@@H]1CNc2c(sc3ccc4nc(N5CCN(CC6CCN(c7ccc8c(c7)n(C)c(=O)n8C7CCC(=O)NC7=O)CC6)CC5)ccc4c23)C(=O)N1 (stereo partly shown) [Compound I-265]	> 75	1 to 10	> 75	1 to 10	
C[C@@H]1CN(C)c2c(sc3ccc4nc(-c5ccc(N6CCN(CCCc7ccc8c(c7)n(C)c(=O)n8C7CCC(=O)NC7=O)CC6)cc5)ccc4c23)C(=O)N1 (stereo partly shown) [Compound I-266]	> 75	1 to 10	> 75	1 to 10	
C[C@@H]1CN(C)c2c(sc3ccc4nc(-c5cccc(N6CCC(CN7CCN(c8cccc9c(N%10CCC(=O)NC%10=O)cncc89)CC7)CC6)c5)ccc4c23)C(=O)N1 [Compound I-267]	< 50	> 100	< 50	> 100	
C[C@@H]1CN(C)c2c(sc3ccc4nc(-c5ccc(N6CCN(CC7CCN(c8ccc9c(c8)n(C)c(=O)n9C8CCC(=O)NC8=O)CC7)CC6)nc5)ccc4c23)C(=O)N1 (stereo partly shown) [Compound I-268]	> 75	1 to 10	> 75	1 to 10	
C[C@@H]1CNc2c(sc3ccc4nc(-c5ccc(N6CCN(CC7CN(c8cccc9c8n(C)c(=O)n9C8CCC(=O)NC8=O)C7)CC6)cc5)ccc4c23)C(=O)N1 (stereo partly shown) [Compound I-269]	> 75	1 to 10	> 75	< 1	
C[C@@H]1CNc2c(sc3ccc4nc(-c5cnc(N6CCC(CN7CCN(c8cccc9c8n(C)c(=O)n9C8CCC(=O)NC8=O)CC7)CC6)nc5)ccc4c23)C(=O)N1 (stereo partly shown) [Compound I-270]	> 75	1 to 10	> 75	< 1	
C[C@@H]1CNc2c(sc3ccc4nc(-c5cnc(N6CCC(CN7CCN(c8ccc9c(c8)n(C)c(=O)n9C8CCC(=O)NC8=O)CC7)CC6)nc5)ccc4c23)C(=O)N1 (stereo partly shown) [Compound I-271]	> 75	< 1	> 75	< 1	
Cc1cc(-c2ccc3c(ccc4sc5c(c43)NC[C@@H](C)NC5=O)n2)cnc1N1CCN(CC2CCN(c3ccc4c(c3)n(C)c(=O)n4C3CCC(=O)NC3=O)CC2)CC1 (stereo partly shown) [Compound I-272]	> 75	< 1	> 75	< 1	
C[C@@H]1CN(C)c2c(sc3ccc4nc(-c5ccc(N6CCN(CC7CCN(c8cccc9c8n(C)c(=O)n9C8CCC(=O)NC8=O)CC7)CC6)cc5)ccc4c23)C(=O)N1 (stereo partly shown) [Compound I-274]	> 75	10 to 100	> 75	10 to 100	
